The values that follow come from patent US20250082557A1, “COMPOSITION FOR ENHANCING SKIN VITALITY CONTAINING A THYMOL ESTER-BASED COMPOUND” (Amorepacific Corporation, priority 2023, published 2025).

The subject of experiment [1] is skin fibroblasts. As to the kind of experiment: Mitochondrial activity: maximal oxygen consumption rate (OCR), Seahorse XF cell mitochondrial stress test. In kind it is cell-based. The text has this: Specifically, the Seahorse XF Pro analyzer equipment from Agilent was used, and the mitochondrial activity (ATP energy production efficiency), i.e., the maximal oxygen consumption rate (OCR), was observed according to the standard protocol provided with the Seahorse XF cell mitochondrial stress measurement kit provided by the company (FIG. 2).

The subject of experiment [2] is mitophagy marker genes (VDAC, Parkin, PINK). As to the kind of experiment: Expression of mitophagy marker genes (VDAC, Parkin, PINK) by RT-PCR. Particulars: fibroblasts, hydrocortisone 10 μM and MELASOLV 5.5 μg/ml for 24 hours; FIGS. 3 to 5. In kind it is cell-based. As to the method:
Fibroblasts were seeded in 10 cm^2 cell culture dishes at a concentration of 3×10^5 cells/dish and cultured in 10 ml of minimum essential medium eagle (MEM) medium containing 10% fetal bovine serum (FBS) and 1% penicillin streptomycin. After 24 hours, the cells reached approximately 70%, and the cells were treated with (1) DMSO (control), (2) hydrocortisone (10 μM) alone, or (3) hydrocortisone (10 μM) and MELASOLV™ (5.5 μg/ml) for 24 hours.
RNA was extracted with easy-BLUE (INTRON) reagent. cDNA samples were generated from 0.5 μg of RNA using PrimeScript RT reagent Kit. The generated cDNA was amplified using ACCUPOWER™ PCR Premix. The PCR products were further analyzed using PCR Thermal Cycler Dice.
It was confirmed through a […] in the expression of mitophagy marker genes (VDAC, Parkin, PINK) whether it contributes to the activation of mitophagy which removes unnecessary elements from mitochondria.

The mark [3] stands for this setting: hydrocortisone 10 uM 24 hours, MELASOLV 5 ppm 24 hours, FIG. 2.

The structures appear in SMILES notation.

`C[C@]12CCC(=O)C=C1CC[C@@H]1[C@@H]2[C@@H](O)C[C@@]2(C)[C@H]1CC[C@]2(O)C(=O)CO` [hydrocortisone, reference compound]: the “cell respiration rate (OCR) compared to the control group (Ctrl)” value in experiment [1] (hydrocortisone 10 uM 24 hours alone (stress-induced condition)) is listed as “reduced”.
For the compound `COc1cc(/C=C/C(=O)Oc2cc(C)ccc2C(C)C)cc(OC)c1OC` [MELASOLV™, (5-methyl-2-propan-2-ylphenyl) (E)-3-(3,4,5-trimethoxyphenyl) prop-2-enoate], in experiment [2], the “expression of mitophagy genes (VDAC, Parkin, PINK)” value was “increased”. Also, in experiment [1] (setting [3]), the “maximal respiration (OCR) compared to the control group not treated with anything” value is recorded as “increased higher” and the “maximal respiration (maximal oxygen consumption rate, OCR) compared to treatment with only hydrocortisone” value is reported as “statistically significantly higher”. In addition, in experiment [1] (hydrocortisone 10 uM, MELASOLV 5 ppm 24 hours), the “cell respiration rate (OCR) reduced by hydrocortisone, effect of treatment” value is on record as “recovered”.
